Target: mDUSP-H1 (DUSP-H1 from monkeypox virus) (Monkeypox virus, UniProt A0A7H0DN78)
Assay: biochemical
Format: biochemical
Conditions: not given

mDUSP-H1 (DUSP-H1 from monkeypox virus), sequence (A0A7H0DN78 whole entry, looked up): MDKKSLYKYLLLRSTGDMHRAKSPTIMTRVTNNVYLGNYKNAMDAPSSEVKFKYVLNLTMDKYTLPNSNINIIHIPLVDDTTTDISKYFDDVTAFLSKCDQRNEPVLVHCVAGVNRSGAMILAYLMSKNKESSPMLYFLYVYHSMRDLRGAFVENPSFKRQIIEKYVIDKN

SMILES | inhibitory activity against mDUSP-H1 (in words) | mDUSP-H1 reactivity compared to the DMSO control | IC50
COc1ccc(-c2cc(=O)c3c(O)cc(O)cc3o2)cc1O [Diosmetin] | no significant inhibitory activity | relatively unchanged | –
C[C@@H]1O[C@@H](O[C@H]2[C@H](Oc3cc(O)c4c(c3)O[C@H](c3ccc(O)cc3)CC4=O)O[C@H](CO)[C@@H](O)[C@@H]2O)[C@H](O)[C@H](O)[C@H]1O [Naringin] | little to no activity | relatively unchanged | –
C[C@@H]1O[C@@H](Oc2c(-c3ccc(O)c(O)c3)oc3cc(O)cc(O)c3c2=O)[C@H](O)[C@H](O)[C@H]1O [Quercitrin] | minimal inhibition | relatively unchanged | –
Oc1cc(O)c2c(c1)O[C@@H](c1cc(O)c(O)c(O)c1)[C@H](O)C2 [(−)-Gallocatechin] | – | significantly reduced reactivity | 9.56 ± 0.32 µM
COc1ccc(-c2cc(=O)c3c(O)c(OC)c(O[C@@H]4O[C@H](CO[C@@H]5O[C@@H](C)[C@H](O)[C@@H](O)[C@H]5O)[C@@H](O)[C@H](O)[C@H]4O)cc3o2)cc1 [Pectolinarin] | – | relatively unchanged | –
O=c1c(O)c(-c2cc(O)c(O)c(O)c2)oc2cc(O)cc(O)c12 [Myricetin] | – | significantly reduced reactivity | –
COc1cc2oc(-c3ccc(O)c(O)c3)cc(=O)c2c(O)c1OC [Cirsiliol] | – | relatively unchanged | –
O=c1c(O)c(-c2ccc(O)cc2)oc2c(O)c(O)cc(O)c12 [Herbacetin] | – | significantly reduced reactivity | 12.71 ± 0.08 µM
O=C(O[C@@H]1Cc2c(O)cc(O)cc2O[C@@H]1c1cc(O)c(O)c(O)c1)c1cc(O)c(O)c(O)c1 [(−)-Epigallocatechin gallate] | – | significantly reduced reactivity | 14 ± 0.35 µM
O=c1cc(-c2ccccc2)oc2cc(O)c(O)c(O)c12 [Baicalein] | – | significantly reduced reactivity | 11.2 ± 0.14 µM
O=c1cc(-c2ccc(O)cc2)oc2c(-c3c(O)cc(O)c4c(=O)cc(-c5ccc(O)cc5)oc34)c(O)cc(O)c12 [Cupressuflavone] | – | significantly reduced reactivity | 11.1 ± 0.18 µM

Tested on: HEK293
Assay: not given
Conditions: cited from earlier work

SMILES | IC50
O=c1c(O)c(-c2cc(O)c(O)c(O)c2)oc2cc(O)cc(O)c12 [Myricetin] | > 100 µM

Tested on: normal human cell lines
Assay: not given
Conditions: cited from earlier work

SMILES | IC50 | non-toxic concentration
Oc1cc(O)c2c(c1)O[C@@H](c1cc(O)c(O)c(O)c1)[C@H](O)C2 [(−)-Gallocatechin] | > 100 µM | ≤ 100 µM
O=c1c(O)c(-c2cc(O)c(O)c(O)c2)oc2cc(O)cc(O)c12 [Myricetin] | > 100 µM | –

Tested on: human dermal fibroblasts (HDF)
Assay: not given
Conditions: cited from earlier work

SMILES | IC50
O=c1c(O)c(-c2cc(O)c(O)c(O)c2)oc2cc(O)cc(O)c12 [Myricetin] | > 100 µM

— article PMC12344671 (Journal of Enzyme Inhibition and Medicinal Chemistry, 2025)
